Data: US9096591B2, “Tetracyclic compounds” (Medivation Technologies, Inc., priority 2007, dated 2015)
Read-outs that look alike come from different tables or passages of the source.

Experiments:
[1] = target: T1, human recombinant histamine H1 receptor (Homo sapiens, UniProt P35367); assay: Histamine H1 radioligand binding ([3H]Pyrilamine); conditions: read-out: Inhibition of ligand binding, Hist. H1
T1 construct: expressed in transfected cells; host or cells: CHO cells
Procedure, shortened: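 Receptor expressed in CHO cells, assayed in 50 mM Tris-HCl pH 7.4 with 2 mM MgCl2, 100 mM NaCl, 250 mM sucrose. Compounds tested at 1 μM in 1% DMSO; non-specific binding set with 1 μM pyrilamine. Filter-bound radioactivity counted; values are percent inhibition of specific binding.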

[2] = target: T2, human recombinant histamine H2 receptor (Homo sapiens, UniProt P25021); assay: Histamine H2 radioligand binding ([125I]Aminopotentidine); conditions: for inhibition at 1 µM: read-out: Inhibition of ligand binding, Hist. H2
T2 construct: expressed in transfected cells; host or cells: CHO-K1 cells
T2 sequence (P25021 whole entry): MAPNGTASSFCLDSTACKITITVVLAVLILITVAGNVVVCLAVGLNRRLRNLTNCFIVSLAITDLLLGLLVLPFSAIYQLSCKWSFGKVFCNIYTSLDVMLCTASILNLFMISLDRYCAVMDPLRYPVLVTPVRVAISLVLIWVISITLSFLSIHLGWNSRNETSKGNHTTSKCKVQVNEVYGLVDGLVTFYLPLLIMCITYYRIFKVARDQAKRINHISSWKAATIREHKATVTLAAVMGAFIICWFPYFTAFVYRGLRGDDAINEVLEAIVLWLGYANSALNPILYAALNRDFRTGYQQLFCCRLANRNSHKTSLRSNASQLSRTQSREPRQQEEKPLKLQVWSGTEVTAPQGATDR
Procedure, shortened: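 Test compounds were assessed for their ability to displace radioligand from the human recombinant histamine H2 receptor. Non-specific binding was determined in the presence of 3 μM Tiotidine, and results were expressed as percent inhibition of specific binding, with 1% DMSO serving as the vehicle.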

[3] = target: T3, human recombinant adrenergic α1D receptor (Homo sapiens, UniProt P25100); assay: Adrenergic α1D radioligand binding ([3H]Prozosin); parameters: Inhibition of ligand binding, Adren. alpha1D: concentration or dose not given beside the values; conditions: percent inhibition of specific binding
T3 construct: expressed in transfected cells; host or cells: HEK-293 cells
T3 sequence (P25100 1-572): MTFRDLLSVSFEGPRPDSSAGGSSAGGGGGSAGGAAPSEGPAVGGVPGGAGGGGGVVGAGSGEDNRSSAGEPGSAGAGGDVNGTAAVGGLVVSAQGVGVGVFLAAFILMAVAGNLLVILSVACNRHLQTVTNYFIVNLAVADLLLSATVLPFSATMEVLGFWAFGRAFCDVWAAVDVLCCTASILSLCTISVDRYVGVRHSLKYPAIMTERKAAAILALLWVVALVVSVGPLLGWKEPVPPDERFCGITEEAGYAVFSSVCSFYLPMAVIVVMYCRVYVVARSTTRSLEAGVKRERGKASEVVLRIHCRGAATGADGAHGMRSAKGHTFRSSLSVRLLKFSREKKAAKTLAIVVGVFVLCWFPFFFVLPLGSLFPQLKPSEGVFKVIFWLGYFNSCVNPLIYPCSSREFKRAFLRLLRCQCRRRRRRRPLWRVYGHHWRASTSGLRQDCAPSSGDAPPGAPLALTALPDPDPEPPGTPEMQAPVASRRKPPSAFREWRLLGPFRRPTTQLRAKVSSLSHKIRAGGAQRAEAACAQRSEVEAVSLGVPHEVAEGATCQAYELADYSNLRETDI
Description: Compounds of invention were incubated with 0.6 nM [^3H]Prozosin for 60 minutes at 25° C. Non-specific binding was estimated in the presence of 10 μM phentolamine. Receptor proteins were filtered and washed, the filters were then counted to determine [^3H]Prozosin specifically bound. […] Biochemical assay results are presented as the percent inhibition of specific binding in Table 6.

[4] = target: T4, human recombinant adrenergic α2B receptor (Homo sapiens, UniProt P18089); assay: Adrenergic α2B radioligand binding ([3H]Rauwolscine); parameters: Inhibition of ligand binding, Adren. alpha2B: concentration or dose not given beside the values; conditions: percent inhibition of specific binding
T4 construct: expressed in transfected cells; host or cells: CHO-K1 cells
T4 sequence (P18089 1-450): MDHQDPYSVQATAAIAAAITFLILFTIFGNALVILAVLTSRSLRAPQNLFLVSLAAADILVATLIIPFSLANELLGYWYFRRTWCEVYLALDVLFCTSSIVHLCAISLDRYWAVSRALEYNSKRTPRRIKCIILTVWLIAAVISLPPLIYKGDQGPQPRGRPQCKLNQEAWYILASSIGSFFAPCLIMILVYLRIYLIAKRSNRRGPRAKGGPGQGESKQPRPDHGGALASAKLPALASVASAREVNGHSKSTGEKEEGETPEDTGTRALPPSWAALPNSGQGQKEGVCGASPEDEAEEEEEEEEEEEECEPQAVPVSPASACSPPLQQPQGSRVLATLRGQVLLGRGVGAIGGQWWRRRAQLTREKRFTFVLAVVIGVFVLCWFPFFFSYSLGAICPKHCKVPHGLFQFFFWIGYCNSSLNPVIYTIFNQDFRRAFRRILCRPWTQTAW
Procedure, shortened: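 Membranes from CHO-K1 cells expressing the receptor, in 50 mM Tris-HCl pH 7.4 with 12.5 mM MgCl2, 1 mM EDTA, 0.2% BSA, incubated with compounds and 2.5 nM [3H]Rauwolscine for 60 minutes at 25 °C.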

[5] = target: T5, human recombinant dopamine D2L receptor (Homo sapiens, UniProt P14416); assay: Dopamine D2L radioligand binding ([3H]Spiperone); conditions: percent inhibition of specific binding
T5 construct: expressed in transfected cells; host or cells: CHO cells
T5 sequence (P14416 whole entry): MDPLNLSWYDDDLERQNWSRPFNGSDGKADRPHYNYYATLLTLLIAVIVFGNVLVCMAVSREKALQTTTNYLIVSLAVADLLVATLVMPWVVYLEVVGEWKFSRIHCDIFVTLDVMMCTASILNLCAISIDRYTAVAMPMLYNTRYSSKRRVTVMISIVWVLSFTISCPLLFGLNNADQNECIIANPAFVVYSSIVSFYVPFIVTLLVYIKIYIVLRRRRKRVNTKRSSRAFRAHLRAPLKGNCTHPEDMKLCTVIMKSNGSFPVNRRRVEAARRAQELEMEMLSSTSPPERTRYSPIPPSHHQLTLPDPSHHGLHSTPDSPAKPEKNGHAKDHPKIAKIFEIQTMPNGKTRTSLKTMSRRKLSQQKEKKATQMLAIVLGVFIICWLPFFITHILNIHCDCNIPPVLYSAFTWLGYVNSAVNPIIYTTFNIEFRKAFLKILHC
Description: Non-specific binding was estimated in the presence of 10 μM Haloperidol. Receptor proteins were filtered and washed, the filters were then counted to determine [^3H]Spiperone specifically bound. […] Biochemical assay results are presented as the percent inhibition of specific binding in Table 6.

[6] = target: T6, human recombinant serotonin (5-Hydroxytryptamine) 5-HT2A receptor (Homo sapiens, UniProt P28223); assay: Serotonin 5-HT2A radioligand binding ([3H]Ketanserin); conditions: percent inhibition of specific binding
T6 construct: expressed in transfected cells; host or cells: CHO-K1 cells
T6 sequence (P28223 whole entry): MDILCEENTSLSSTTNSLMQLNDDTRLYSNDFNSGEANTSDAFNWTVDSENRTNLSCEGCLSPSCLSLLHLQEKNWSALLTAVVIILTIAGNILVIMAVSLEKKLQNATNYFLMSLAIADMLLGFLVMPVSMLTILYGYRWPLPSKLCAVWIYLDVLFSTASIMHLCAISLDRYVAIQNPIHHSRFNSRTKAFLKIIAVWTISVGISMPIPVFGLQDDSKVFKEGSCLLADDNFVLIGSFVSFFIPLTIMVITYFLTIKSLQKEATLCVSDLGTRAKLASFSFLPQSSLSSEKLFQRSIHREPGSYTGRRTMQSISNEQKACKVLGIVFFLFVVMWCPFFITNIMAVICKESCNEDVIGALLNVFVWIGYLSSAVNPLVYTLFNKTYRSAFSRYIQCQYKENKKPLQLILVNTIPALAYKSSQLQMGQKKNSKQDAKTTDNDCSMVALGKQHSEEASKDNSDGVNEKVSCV
Description: Compounds of the invention were incubated with 0.5 nM [^3H]Ketanserin for 60 minutes at 25° C. Non-specific binding was estimated in the presence of 1 μM Mianserin. Receptor proteins were filtered and washed, the filters were then counted to determine [^3H]Ketanserin specifically bound. […] Biochemical assay results are presented as the percent inhibition of specific binding in Table 6.

[7] = percent inhibition of specific binding, screened at 1 μM

T1 sequence (P35367 whole entry): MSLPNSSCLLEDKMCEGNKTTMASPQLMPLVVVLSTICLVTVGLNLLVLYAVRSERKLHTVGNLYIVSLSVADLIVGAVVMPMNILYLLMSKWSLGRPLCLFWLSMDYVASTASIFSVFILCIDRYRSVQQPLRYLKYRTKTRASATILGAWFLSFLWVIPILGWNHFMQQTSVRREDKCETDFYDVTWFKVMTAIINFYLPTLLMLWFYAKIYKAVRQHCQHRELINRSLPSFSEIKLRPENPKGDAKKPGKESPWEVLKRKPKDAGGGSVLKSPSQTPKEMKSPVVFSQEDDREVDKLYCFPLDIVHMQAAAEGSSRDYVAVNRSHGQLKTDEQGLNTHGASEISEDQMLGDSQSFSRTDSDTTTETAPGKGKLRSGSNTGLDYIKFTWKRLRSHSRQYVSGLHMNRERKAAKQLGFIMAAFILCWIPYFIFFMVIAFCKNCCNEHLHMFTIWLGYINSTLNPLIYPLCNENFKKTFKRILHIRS

| Structure (SMILES) | inhibition at 1 µM [1, 7] [%] | inhibition at 1 µM [2, 7] [%] | Inhibition of ligand binding, Adren. alpha1D [3] [%] | Inhibition of ligand binding, Adren. alpha2B [4] [%] | Inhibition of ligand binding, Dop. D2L [5] [%] | Inhibition of ligand binding, Ser. 5-HT2A [6] [%] | inhibition at […] ([2]; […] compound, 0.1 nM [125I]Aminopotentidine, read-out: Histamine Binding H2, percent inhibition of specific binding) [%] | inhibition at 1 µM [1] [%] | inhibition at 1 µM [2] [%] |
| --- | --- | --- | --- | --- | --- | --- | --- | --- | --- |
| CN1CCc2c(c3cc(F)ccc3n2CCc2ccc(F)cc2)C1 [Compound 253] | 97 | 73 | 81 | 104 | 96 | – | – | – | – |
| CN1CCc2c(c3cc(Cl)ccc3n2CCc2ccc(Cl)cc2)C1 [Compound 45, 5-(4-chlorophenethyl)-8-chloro-2,3,4,5-tetrahydro-2-methyl-1H-pyrido[4,3-b]indole] | 103 | 98 | 92 | 102 | – | 100 | – | – | – |
| CN1CCc2c(c3c(Cl)cccc3n2CCC2CCCCC2)C1 [Compound 187, 9-chloro-5-(2-cyclohexylethyl)-2,3,4,5-tetrahydro-2-methyl-1H-pyrido[4,3-b]indole] | 64 | 69 | 15 | 57 | – | 84 | – | – | – |
| Cc1ccc(CCn2c3c(c4cc(Cl)ccc42)CN(C)CC3)cc1 [Compound 43] | 110 | 100 | 98 | 108 | – | 99 | – | – | – |
| CN1CCc2c(c3cc(Cl)ccc3n2CCN2CCCCC2)C1 [Compound 189] | 94 | 87 | 28 | 72 | 0 | – | – | – | – |
| CN1CCc2c(c3cc(Cl)ccc3n2CCN2CCOCC2)C1 [Compound 186, 8-chloro-2,3,4,5-tetrahydro-2-methyl-5-(2-morpholinoethyl)-1H-pyrido[4,3-b]indole] | 97 | 25 | 41 | 79 | – | 84 | – | – | – |
| Cc1ccc2c(c1)c1c(n2CCc2ccc(C)nc2)CCN(C2CC2)C1 [Compound 51] | 94 | 17 | 22 | 10 | – | 0 | – | – | – |
| Cc1ccc(CCn2c3c(c4cc(C(=O)O)ccc42)CN(C)CC3)cn1 [Compound 256, 2-Methyl-5-(2-(6-methylpyridin-3-yl)ethyl)-2,3,4,5-tetrahydro-1H-pyrido[4,3-b]indole-8-carboxylic acid] | -1 | -6 | −10 | 4 | – | 2 | -16 | – | – |
| CC(C)N1CCN(C(=O)Cn2c3c(c4cc(Cl)ccc42)CN(C)CC3)CC1 [Compound 248] | 85 | 7 | 26 | 75 | 2 | – | – | – | – |
| CN1CCc2c(c3cc(F)ccc3n2CCc2ccc(Cl)cc2)C1 [Compound 249] | 100 | 88 | 65 | 109 | 64 | – | – | – | – |
| Cc1ccc2c(c1)c1c(n2CCc2ccc(C)[n+]([O-])c2)CCN(C)C1 [Compound 394, 5-(2-(2,8-dimethyl-3,4-dihydro-1H-pyrido[4,3-b]indol-5(2H)-yl)ethyl)-2-methylpyridine 1-oxide] | 30 | -2 | 9 | 19 | – | 3 | – | – | – |
| Cc1ccc2c(c1)c1c(n2CC(=O)N2CCC(C)CC2)CCN(C)C1 [Compound 251] | 55 | 21 | 14 | 8 | −7 | – | – | – | – |
| Cc1ccc2c(c1)c1c(n2CCc2ccccc2)CC(O)N(C)C1=O (stereo not shown) [Compound 215, 3,4-dihydro-3-hydroxy-2,8-dimethyl-5-phenethyl-2H-pyrido[4,3-b]indol-1(5H)-one] | – | – | −5 | −4 | – | −6 | – | -2 | 16 |
| Cc1ccc2c(c1)c1c(n2CCN2CCCCC2)CCN(C)C1 [Compound 224, 2,3,4,5-tetrahydro-2,8-dimethyl-5-(2-(piperidin-1-yl)ethyl)-1H-pyrido[4,3-b]indole] | 56 | 79 | 22 | 46 | – | 32 | – | – | – |
| CN1CCc2c(c3cc(Cl)ccc3n2CCC2CCCCC2)C1 [Compound 164, 8-chloro-5-(2-cyclohexylethyl)-2,3,4,5-tetrahydro-2-methyl-1H-pyrido[4,3-b]indole] | 101 | 84 | 32 | 93 | – | 91 | – | – | – |
